Results: patent US10196393B2, “JAK inhibitors containing a 4-membered heterocyclic amide” (THERAVANCE BIOPHARMA R&D IP, LLC, priority 2017, dated 2019)
pIC50, pKi: −log10 of the molar value.

Experiments:
[1] = system: IL-6 stimulated STAT3 phosphorylation in CD3+ T cells; assay: Cellular JAK potency assay: inhibition of IL-6 stimulated pSTAT3 in CD3+ T cells; format: cell-based; conditions: T-cell; CD3+ T cells in human PBMCs; read-out: pIC50, inhibition of IL-6 stimulated pSTAT3 (converted)
Description: Assay 11: Cellular JAK Potency Assay: Inhibition of IL-6 Stimulated pSTAT3 in CD3+ T Cells
A protocol analogous to that of Assay 10 was used to determine the potency of the test compound for inhibition of interleuken-6 (IL-6) stimulated STAT3 phosphorylation. An Alexa Fluor 647 conjugated anti-pSTAT3 antibody (pY705, Clone 4/P, BD Biosciences) was used to detect STAT3 phosphorylation.

[2] = system: IL-2/anti-CD3 stimulated IFNγ in human PBMCs; assay: Cellular JAK potency assay: inhibition of IL-2/anti-CD3 stimulated IFNγ in human PBMCs; format: cell-based; conditions: PBMC, 24 h stimulation, read-out: pIC50, inhibition of IL-2/anti-CD3 stimulated IFNγ (converted)
Description: Data are expressed as pIC50 (negative decadic logarithm IC50) values.

JAK3 = JAK3 (Homo sapiens (Human), UniProt P52333); assay: Biochemical JAK kinase assay (LanthaScreen), JAK3; conditions: converted from pIC50 with Cheng-Prusoff equation
Chain of JAK3 (P52333 whole entry): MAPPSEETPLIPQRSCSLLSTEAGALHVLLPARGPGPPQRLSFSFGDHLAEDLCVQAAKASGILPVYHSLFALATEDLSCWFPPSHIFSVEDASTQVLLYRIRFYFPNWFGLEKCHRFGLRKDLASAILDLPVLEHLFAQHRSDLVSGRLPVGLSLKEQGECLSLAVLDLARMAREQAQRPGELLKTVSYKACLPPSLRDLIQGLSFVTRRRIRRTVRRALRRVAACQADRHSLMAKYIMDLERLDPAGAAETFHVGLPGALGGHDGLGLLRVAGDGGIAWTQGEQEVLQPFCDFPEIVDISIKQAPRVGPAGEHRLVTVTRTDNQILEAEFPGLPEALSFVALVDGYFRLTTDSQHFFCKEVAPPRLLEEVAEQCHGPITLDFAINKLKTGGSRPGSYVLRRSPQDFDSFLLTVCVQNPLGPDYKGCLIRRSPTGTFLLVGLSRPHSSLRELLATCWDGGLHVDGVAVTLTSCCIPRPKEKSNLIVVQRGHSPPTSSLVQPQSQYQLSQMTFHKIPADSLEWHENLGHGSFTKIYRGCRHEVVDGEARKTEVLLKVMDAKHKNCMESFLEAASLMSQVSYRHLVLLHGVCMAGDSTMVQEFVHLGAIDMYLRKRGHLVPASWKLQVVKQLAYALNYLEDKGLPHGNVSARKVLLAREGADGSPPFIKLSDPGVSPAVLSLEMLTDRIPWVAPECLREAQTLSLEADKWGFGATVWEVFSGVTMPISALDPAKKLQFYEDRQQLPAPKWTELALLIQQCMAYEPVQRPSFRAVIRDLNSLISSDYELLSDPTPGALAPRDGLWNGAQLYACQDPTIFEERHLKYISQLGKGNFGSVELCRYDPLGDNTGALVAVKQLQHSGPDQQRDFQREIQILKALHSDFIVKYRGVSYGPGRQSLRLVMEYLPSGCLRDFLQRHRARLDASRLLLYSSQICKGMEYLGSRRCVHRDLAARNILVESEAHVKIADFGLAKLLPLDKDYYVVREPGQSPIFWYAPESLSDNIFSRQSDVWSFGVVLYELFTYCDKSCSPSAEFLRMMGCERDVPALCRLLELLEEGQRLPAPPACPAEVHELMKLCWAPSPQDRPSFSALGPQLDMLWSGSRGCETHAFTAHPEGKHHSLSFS
Experimental: (§1) Assay 1: Biochemical JAK Kinase Assays
(§2) A panel of four LanthaScreen JAK biochemical assays (JAK1, 2, 3 and Tyk2) were carried in a common kinase reaction buffer (50 mM HEPES, pH 7.5, 0.01% Brij-35, 10 mM MgCl2, and 1 mM EGTA). Recombinant GST-tagged JAK enzymes and a GFP-tagged STAT1 peptide substrate were obtained from Life Technologies.
(§3) Serially diluted compounds were pre-incubated with each of the four JAK enzymes and the substrate in white 384-well microplates (Corning) at ambient temperature for 1 h. ATP was subsequently added to initiate the kinase reactions in 10 μL total volume, with 1% DMSO. […] The plates were allowed to incubate at ambient temperature for 1 h before being read on the EnVision reader (Perkin Elmer).
(§4) For dose-response analysis, percent inhibition data were plotted vs. compound concentrations, and IC50 values were determined from a 4-parameter robust fit model with the Prism software (GraphPad Software). Results were expressed as pIC50 (negative logarithm of IC50) and subsequently converted to pKi (negative logarithm of dissociation constant, Ki) using the Cheng-Prusoff equation.

JAK1 = JAK1 (Homo sapiens (Human), UniProt P23458); assay: Biochemical JAK kinase assay (LanthaScreen), JAK1; conditions: converted from pIC50 with Cheng-Prusoff equation
Chain of JAK1 (P23458 whole entry): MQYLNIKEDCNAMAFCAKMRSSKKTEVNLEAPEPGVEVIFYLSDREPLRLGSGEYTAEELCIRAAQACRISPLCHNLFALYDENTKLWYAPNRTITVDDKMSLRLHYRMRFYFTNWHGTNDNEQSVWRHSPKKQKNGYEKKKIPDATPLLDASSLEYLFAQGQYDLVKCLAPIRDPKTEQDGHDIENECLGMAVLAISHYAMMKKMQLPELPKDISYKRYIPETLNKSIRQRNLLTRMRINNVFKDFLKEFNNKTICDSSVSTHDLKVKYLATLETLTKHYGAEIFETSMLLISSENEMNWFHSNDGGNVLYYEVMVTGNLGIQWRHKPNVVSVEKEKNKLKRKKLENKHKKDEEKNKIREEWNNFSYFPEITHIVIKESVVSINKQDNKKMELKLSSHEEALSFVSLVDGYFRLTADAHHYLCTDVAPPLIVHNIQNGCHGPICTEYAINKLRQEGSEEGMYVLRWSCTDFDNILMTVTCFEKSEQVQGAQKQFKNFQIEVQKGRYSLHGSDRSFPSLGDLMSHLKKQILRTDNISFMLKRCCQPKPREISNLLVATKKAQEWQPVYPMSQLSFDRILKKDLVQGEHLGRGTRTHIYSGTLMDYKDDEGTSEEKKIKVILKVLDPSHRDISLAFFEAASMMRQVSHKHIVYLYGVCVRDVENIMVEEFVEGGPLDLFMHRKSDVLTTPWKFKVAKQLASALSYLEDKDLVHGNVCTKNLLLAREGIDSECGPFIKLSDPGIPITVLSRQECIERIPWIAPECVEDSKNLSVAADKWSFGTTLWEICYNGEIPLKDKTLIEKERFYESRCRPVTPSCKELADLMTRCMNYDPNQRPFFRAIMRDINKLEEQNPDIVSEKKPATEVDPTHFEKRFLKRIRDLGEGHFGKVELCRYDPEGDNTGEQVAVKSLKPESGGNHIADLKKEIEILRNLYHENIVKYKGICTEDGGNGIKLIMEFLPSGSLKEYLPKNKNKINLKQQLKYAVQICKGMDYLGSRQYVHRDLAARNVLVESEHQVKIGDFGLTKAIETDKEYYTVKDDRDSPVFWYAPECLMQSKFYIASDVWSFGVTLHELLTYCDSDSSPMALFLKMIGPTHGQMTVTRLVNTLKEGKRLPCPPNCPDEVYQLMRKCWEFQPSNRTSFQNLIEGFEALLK
Experimental: as §1, §2, §3, §4

[3] = system: IL-13 induced STAT6 phosphorylation in BEAS-2B human lung epithelial cells; assay: Cellular JAKI potency assay (AlphaScreen), BEAS-2B; format: cell-based; conditions: Homo sapiens, BEAS-2B cells
Experimental: Assay 2: Cellular JAKI Potency Assay
The AlphaScreen JAKI cellular potency assay was carried out by measuring interleukin-13 (IL-13, R&D Systems) induced STAT6 phosphorylation in BEAS-2B human lung epithelial cells (ATCC). The anti-STAT6 antibody (Cell Signaling Technologies) was conjugated to AlphaScreen acceptor beads (Perkin Elmer), while the anti-pSTAT6 (pTyr641) antibody (Cell Signaling Technologies) was biotinylated using EZ-Link Sulfo-NHS-Biotin (Thermo Scientific).
BEAS-2B cells were grown at 37° C. in a 5% CO2 humidified incubator in 50% DMEM/50% F-12 medium (Life Technologies) supplemented with 10% FBS (Hyclone), 100 U/mL penicillin, 100 μg/mL streptomycin (Life Technologies), and 2 mM GlutaMAX (Life Technologies). On day 1 of the assay, cells were seeded at a 7,500 cells/well density in white poly-D-lysine-coated 384-well plates (Corning) with 25 μL medium, and were allowed to adhere overnight in the incubator. On day 2 of the assay, the medium was removed and replaced with 12 μL of assay buffer (Hank's Balanced Salt Solution/HBSS, 25 mM HEPES, and 1 mg/ml bovine serum albumin/BSA) containing dose-responses of test compounds. Compounds were serially diluted in DMSO and then diluted another 1000-fold in media to bring the final DMSO concentration to 0.1%. Cells were incubated with test compounds at 37° C. for 1 h, and followed by the addition of 12 μl of pre-warmed IL-13 (80 ng/mL in assay buffer) for stimulation. After incubating at 37° C. for 30 min, the assay buffer (containing compound and IL-13) was removed, and 10 μL of cell lysis buffer (25 mM HEPES, 0.1% SDS, 1% NP-40, 5 mM MgCl2, 1.3 mM EDTA, 1 mM EGTA, and supplement with Complete Ultra mini protease inhibitors and PhosSTOP from Roche Diagnostics). The plates were shaken at ambient temperature for 30 min before the addition of detection reagents. A mixture of biotin-anti-pSTAT6 and anti-STAT6 conjugated acceptor beads was added first and incubated at ambient temperature for 2 h, followed by the addition of streptavidin conjugated donor beads (Perkin Elmer). After a minimum of 2 h incubation, the assay plates were read on the EnVision plate reader. AlphaScreen luminescence signals were recorded and utilized to calculate the percent inhibition values based on DMSO and background controls.
For dose-response analysis, percent inhibition data were plotted vs. compound concentrations, and IC50 values were determined from a 4-parameter robust fit model with the Prism software. Results may also be expressed as the negative logarithm of the IC50 value, pIC50.
Test compounds having a lower IC50 value or higher pIC50 value in this assay show greater inhibition of IL-13 induced STAT6 phosphorylation.

Compound CCc1cc(O)c(F)cc1-c1ccc2c(-c3nc4c([nH]3)CN(C(C)C)[C@H](C(=O)N3CC(N(C)C)C3)C4)n[nH]c2c1 [Example 2, (S)-(3-(dimethylamino)azetidin-1-yl)(2-(6-(2-ethyl-5-fluoro-4-hydroxyphenyl)-1H-indazol-3-yl)-5-isopropyl-4,5,6,7-tetrahydro-3H-imidazo[4,5-c]pyridin-6-yl)methanone] has an IC50 [1] of 63.1 nM, an IC50 [2] of ~79.4 nM and a pKi (JAK3) of 10.00. It also gave a pKi (JAK1) of 10.40 and a pIC50 [3] of 8.39.
